Measurements taken from PubChem BioAssay AID330 (DTP/NCI, 2004).
Where “and” joins values, the source holds several entries; their conditions need not be identical. Identical values can stand only once. Toxic doses and inconclusive results are not listed. Rule for the calls: active = survival T/C of 150% or more; inactive = T/C below 125% in these data.

Test system: P388 leukemia ip, CD2F1 mice, survival T/C
Test: NCI In Vivo Anticancer Drug Screen. Data for tumor model P388 Leukemia (intraperitoneal) in CD2F1 (CDF1) mice
Settings: endpoint: median survival time, higher = longer survival
In short: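 Mice carrying the transplanted tumor received test compound or vehicle. Survival was recorded in each group, and the value is the treated-group measurement divided by that of the vehicle-treated control group.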

[1] = dose: 12.5 mg/kg/injection, schedule: Q01DX005 (ip), vehicle: saline with Tween-80
[2] = dose: 25.0 mg/kg/injection, schedule: Q01DX005 (ip), vehicle: saline with Tween-80
[3] = dose: 60.0 mg/kg/injection, schedule: Q01DX005 (ip), vehicle: Klucel (hydroxypropylcellulose) (HPC)
[4] = dose: 120.0 mg/kg/injection, schedule: Q01DX005 (ip), vehicle: Klucel (hydroxypropylcellulose) (HPC)
[5] = dose: 60.0 mg/kg/injection, schedule: Q01DX005 (ip), vehicle: saline
[6] = dose: 50.0 mg/kg/injection, schedule: Q01DX005 (ip), vehicle: saline with Tween-80
[7] = dose: 100.0 mg/kg/injection, schedule: Q01DX005 (ip), vehicle: saline with Tween-80
[8] = dose: 200.0 mg/kg/injection, schedule: Q01DX005 (ip), vehicle: saline with Tween-80
[9] = dose: 50.0 mg/kg/injection, schedule: Q01DX005 (ip), vehicle: Klucel (hydroxypropylcellulose) (HPC)
[10] = dose: 100.0 mg/kg/injection, schedule: Q01DX005 (ip), vehicle: Klucel (hydroxypropylcellulose) (HPC)
[11] = dose: 200.0 mg/kg/injection, schedule: Q01DX005 (ip), vehicle: Klucel (hydroxypropylcellulose) (HPC)
[12] = dose: 60.0 mg/kg/injection, schedule: Q01DX005 (ip), vehicle: saline with Tween-80
[13] = dose: 120.0 mg/kg/injection, schedule: Q01DX005 (ip), vehicle: saline with Tween-80
[14] = dose: 100.0 mg/kg/injection, schedule: Q01DX001 (ip), vehicle: saline with Tween-80
[15] = dose: 200.0 mg/kg/injection, schedule: Q01DX001 (ip), vehicle: saline with Tween-80
[16] = dose: 400.0 mg/kg/injection, schedule: Q01DX001 (ip), vehicle: saline with Tween-80
[17] = dose: 240.0 mg/kg/injection, schedule: Q01DX005 (ip), vehicle: saline with Tween-80
[18] = dose: 100.0 mg/kg/injection, schedule: Q04DX003 (ip), vehicle: Klucel (hydroxypropylcellulose) (HPC)
[19] = dose: 200.0 mg/kg/injection, schedule: Q04DX003 (ip), vehicle: Klucel (hydroxypropylcellulose) (HPC)
[20] = dose: 25.0 mg/kg/injection, schedule: Q04DX002 (ip), vehicle: saline

Measured: T/C

CNc1ncnc2c1ccn2C1OC(CO)C(O)C1O (stereo not drawn)
inactive: dose: 6.25 mg/kg/injection, schedule: Q01DX005 (ip), vehicle: saline with Tween-80 100 % of control | [1] 108 % of control | [2] 100 % of control

NS(=O)(=O)c1ccc(N=NC2Sc3nc4ccccc4n3C2=O)cc1 (stereo not drawn)
inactive: [3] 94 % of control | [4] 91 % of control

Nc1nnc(N)n1-n1c(N)nnc1N
inactive: dose: 15.0 mg/kg/injection, schedule: Q01DX005 (ip), vehicle: saline 104 % of control | dose: 30.0 mg/kg/injection, schedule: Q01DX005 (ip), vehicle: saline 99 % of control | [5] 100 % of control and 104 % of control

[N-]=[N+]=CC(=O)C1OC12C1CC3CC(C1)CC2C3 (stereo not drawn)
inactive: [2] 86 % of control | [6] 105 % of control | [7] 113 % of control | [8] 113 % of control

CCOC(C#CC(C)=O)OCC
inactive: [5] 106 % of control | dose: 120.0 mg/kg/injection, schedule: Q01DX005 (ip), vehicle: saline 103 % of control | dose: 240.0 mg/kg/injection, schedule: Q01DX005 (ip), vehicle: saline 103 % of control

Oc1ccc(CCC2CCC(c3ccc(O)cc3)CO2)cc1 (stereo not drawn)
inactive: dose: 12.5 mg/kg/injection, schedule: Q01DX005 (ip), vehicle: Klucel (hydroxypropylcellulose) (HPC) 97 % of control | dose: 25.0 mg/kg/injection, schedule: Q01DX005 (ip), vehicle: Klucel (hydroxypropylcellulose) (HPC) 103 % of control | [9] 86 % of control | [10] 89 % of control | [11] 89 % of control

C=CCn1c(SC)nc2c(c1=O)CCCC2
inactive: [12] 108 % of control | [13] 97 % of control

O=C(COc1cccc(Cl)c1)NCc1ccc([N+](=O)[O-])cc1
inactive: [14] 100 % of control | [15] 90 % of control | [16] 100 % of control

Cc1ccc(S(=O)(=O)CS(N)(=O)=O)cc1
inactive: [14] 99 % of control | [15] 118 % of control | [16] 97 % of control

CCCCC/C(=C\c1ccccc1)C1OCC(COCC)O1 (stereo not drawn)
inactive: dose: 100.0 mg/kg/injection, schedule: Q01DX009 (ip), vehicle: saline + Tween-80 + alcohol 119 % of control | dose: 200.0 mg/kg/injection, schedule: Q01DX009 (ip), vehicle: saline + Tween-80 + alcohol 118 % of control

O=[N+]([O-])c1ccccc1S(=O)NCc1c(Cl)cccc1Cl (stereo not drawn)
inactive: [12] 100 % of control | [13] 90 % of control | [17] 100 % of control

CC(=O)OCC(=O)[C@@]1(O)CC[C@H]2[C@@H]3CCC4=CC(=O)[C@H](C)C[C@]4(C)[C@@]3(F)[C@@H](O)C[C@@]21C
inactive: [18] 100 % of control | [19] 110 % of control

COC(=O)C(N)Cc1ccc(OCc2ccccc2)cc1 (stereo not drawn)
inactive: dose: 12.5 mg/kg/injection, schedule: Q01DX009 (ip), vehicle: saline 102 % of control | dose: 25.0 mg/kg/injection, schedule: Q01DX009 (ip), vehicle: saline 102 % of control | dose: 25.0 mg/kg/injection, schedule: Q04DX002 (ip), vehicle: saline with Tween-80 97 % of control | dose: 50.0 mg/kg/injection, schedule: Q01DX009 (ip), vehicle: saline 100 % of control and 101 % of control | dose: 50.0 mg/kg/injection, schedule: Q04DX002 (ip), vehicle: saline with Tween-80 108 % of control

CCOC1N(c2ccc(Cl)cc2)CN(CCCN(C)C)CC1(C)C (stereo not drawn)
inactive: dose: 50.0 mg/kg/injection, schedule: Q01DX009 (ip), vehicle: saline with Tween-80 104 % of control | dose: 100.0 mg/kg/injection, schedule: Q01DX009 (ip), vehicle: saline with Tween-80 104 % of control | dose: 200.0 mg/kg/injection, schedule: Q01DX009 (ip), vehicle: saline with Tween-80 117 % of control

C=CCn1c(-c2ccccn2)n[nH]c1=S
inactive: [12] 102 % of control | [13] 101 % of control | [17] 100 % of control

Cn1c(O)c(N=O)c(=O)[nH]c1=S
inactive: dose: 12.5 mg/kg/injection, schedule: Q04DX002 (ip), vehicle: saline 101 % of control | [20] 103 % of control

CCCCCC(=O)C(CCCC)(c1nc2n(c1O)C(=N)N=N2)c1nc2n(c1O)C(=N)N=N2 (stereo not drawn)
inactive: [6] 107 % of control | [7] 93 % of control

CC1(NC(=O)C23CC4CC(CC(C4)C2)C3)CCC(C(C)(C)NC(=O)C23CC4CC(CC(C4)C2)C3)CC1 (stereo not drawn)
inactive: [6] 88 % of control | [7] 88 % of control | [8] 86 % of control

C/C=C/c1nn(-c2ccccc2)c2c1C(=O)CC(C)O2 (stereo not drawn)
inactive: [12] 96 % of control | [13] 95 % of control | [17] 96 % of control

CCCCCCC(=O)/C=c1\c(CC(=O)CCCCCC)nc2nnc(N)n12
inactive: [12] 96 % of control | [13] 100 % of control | [17] 88 % of control

COCC1(C)CCCC2(C)C3=CC(O)CCC3CCC12 (stereo not drawn)
inactive: dose: 100.0 mg/kg/injection, schedule: Q01DX001 (ip), vehicle: saline 98 % of control | dose: 200.0 mg/kg/injection, schedule: Q01DX001 (ip), vehicle: saline 97 % of control | dose: 400.0 mg/kg/injection, schedule: Q01DX001 (ip), vehicle: saline 98 % of control

Cc1cc(C)nc(NS(=O)(=O)c2ccc(NC(=O)c3ccncc3)cc2)n1
inactive: [9] 95 % of control | [10] 96 % of control | [11] 91 % of control

COc1ccc(S(=O)(=O)N/N=C/c2cc([N+](=O)[O-])ccc2O)cc1
inactive: [6] 101 % of control | [7] 107 % of control | [8] 119 % of control

CCOC(=O)C1(CC)CC(OCC)OC1=O (stereo not drawn)
inactive: [9] 100 % of control | [10] 93 % of control | [11] 97 % of control

c1ccc2c(c1)Cc1c-2n[nH]c1-c1[nH]nc2c1Cc1ccccc1-2
inactive: [3] 96 % of control | [4] 102 % of control | dose: 240.0 mg/kg/injection, schedule: Q01DX005 (ip), vehicle: Klucel (hydroxypropylcellulose) (HPC) 96 % of control

CCC(CC)(C(=O)Nc1ccc2nc(C)cc(N)c2c1)C(=O)Nc1ccc2nc(C)cc(N)c2c1
inactive: [1] 102 % of control | [2] 90 % of control | [6] 87 % of control and 93 % of control | [8] 93 % of control

CC12C(=O)C(Br)C1CC2S(=O)(=O)O (stereo not drawn)
inactive: [20] 97 % of control | dose: 50.0 mg/kg/injection, schedule: Q04DX002 (ip), vehicle: saline 95 % of control | dose: 100.0 mg/kg/injection, schedule: Q04DX002 (ip), vehicle: saline 98 % of control | dose: 200.0 mg/kg/injection, schedule: Q04DX002 (ip), vehicle: saline with Tween-80 96 % of control | dose: 400.0 mg/kg/injection, schedule: Q04DX002 (ip), vehicle: saline with Tween-80 99 % of control

CC1CCCCN1C=C1C(=O)OC(C)(C)OC1=O (stereo not drawn)
inactive: [3] 95 % of control | [4] 96 % of control

Cn1cnc2cc(N3CCOCC3)c([N+](=O)[O-])cc2c1=O
inactive: [18] 105 % of control | [19] 112 % of control | dose: 400.0 mg/kg/injection, schedule: Q04DX003 (ip), vehicle: Klucel (hydroxypropylcellulose) (HPC) 95 % of control

O=C1C=CC(=Nc2cc(Cl)c(O)c(Cl)c2)C=C1
inactive: [6] 96 % of control | [7] 92 % of control | [8] 88 % of control

NCCCCC(NC(=O)OCC1c2ccccc2-c2ccccc21)C(=O)O (stereo not drawn)
inactive: [9] 99 % of control | [10] 99 % of control | [11] 109 % of control

O=C(CN=Cc1ccc(Cl)cc1Cl)NNC(=O)c1ccc(Cl)cc1Cl
inactive: [9] 92 % of control | [10] 96 % of control | [11] 92 % of control

NC(=O)CC[n+]1cccc(C(=O)O)c1
inactive: dose: 100.0 mg/kg/injection, schedule: Q04DX003 (ip), vehicle: saline 100 % of control | dose: 200.0 mg/kg/injection, schedule: Q04DX003 (ip), vehicle: saline 95 % of control | dose: 400.0 mg/kg/injection, schedule: Q04DX003 (ip), vehicle: saline 95 % of control

O=C1C=CC2(CCC23C=CC(=O)O3)O1 (stereo not drawn)
inactive: dose: 10.0 mg/kg/injection, schedule: Q01DX009 (ip), vehicle: Klucel (hydroxypropylcellulose) (HPC) 98 % of control | dose: 20.0 mg/kg/injection, schedule: Q01DX009 (ip), vehicle: Klucel (hydroxypropylcellulose) (HPC) 106 % of control | dose: 40.0 mg/kg/injection, schedule: Q01DX009 (ip), vehicle: Klucel (hydroxypropylcellulose) (HPC) 106 % of control
